Results: PMC9061999, “Application of the Adverse Outcome Pathway Concept to In Vitro Nephrotoxicity Assessment: Kidney Injury due to Receptor-Mediated Endocytosis and Lysosomal Overload as a Case Study” (Frontiers in Toxicology, 2022)
Where a name gives a salt, the structure may show the parent alone. Read-outs that look alike come from different tables or passages of the source.

Key:
RPTEC/TERT1 cells = type: cell-based, human
Description: For high content imaging, NRK-52E and RPTEC/TERT1 cells were cultivated in µ-clear half well area microtiter plates (Greiner) according to the protocol described for the cytotoxicity assay with slight modification. Briefly, NRK-52E cells were seeded at 5,000 cells in 100 µL growth medium per well and were incubated under standard growth conditions for 48 h prior to treatment. RPTEC/TERT1 cells were seeded at 15,000 cells in 100 µL growth medium per well and incubated under standard growth conditions for 7–8 days, until cells reached confluence and started to differentiate. This was indicated by the formation of three-dimensional structures referred to as domes which were identified by regular microscopic inspection of the plates. Only differentiated cell cultures with detectable domes were assayed. Cells of both cell lines were treated with serially diluted Polymyxin B sulfate (concentration range 7.8 to 2,000 µM) for 1, 2, 4, 6, or up to 24 h. The assay was carried out on three biological replicates defined as three different non-consecutive passages of the cell culture. Each biological replicate at each treatment concentration was assayed in triplicate wells per plate.
Following treatment, cells were stained with two different combinations of fluorescent dyes: NRK-52E cells with 50 pg/μL LysoView™ 633 (Biotium) and 1 µM SYTO 16 (Thermo Scientific), respectively, for lysosomes and nuclei; RPTEC/TERT1 cells with 10 nM LysoTracker™ Red (Thermo Scientific) and 10 ng/μL Hoechst 33342 (Merck-Sigma Aldrich), respectively, for lysosomes and nuclei. For each cell line a staining solution was obtained by mixing the lysosomes and nuclei dyes in cell culture medium at the concentrations indicated above. The cells were stained by replenishing the medium for 100 µL of staining solution per well followed by incubation at 37°C and 5% CO2 for 30 min before imaging.
Images were acquired with a fully automated fluorescence confocal Opera™ QEHS system (PerkinElmer, United Kingdom) using a ×40 air UPlanApo objective (Olympus) with 0.85 numerical aperture. NRK-52E cells stained with the dyes SYTO 16 and LysoView™633 were imaged with the laser lines 488 and 635 nm, using a 488/561/635 nm primary dichroic mirror, a 510 nm long pass (LP) detection dichroic mirror, a 540/75 nm band pass (BP) emission filter for SYTO 16 and a 690/50 nm BP emission filter for LysoView™ 633. RPTEC/TERT1 cells stained with the dyes Hoechst 33342 and LysoTracker™Red were imaged with the laser lines 405 and 561 nm, using a 405/561/635 nm primary dichroic mirror, a 580 nm LP detection dichroic mirror, a 450/50 nm BP emission filter for Hoechst 33342 and a 600/40 nm BP emission filter for LysoTracker™Red. To prevent cross talk of the fluorescent signals, each dye was imaged consecutively using the combination of lasers and filters described above. The settings for laser power, exposure time and focal height were kept constant for each cell line across all the experiments. For NRK-52E cells images were acquired at 25 randomly distributed positions in a well at a single focal plane whereas for RPTEC/TERT1 cells due to the development of dome structures images were acquired at 9 random positions at three focal planes each 1 μm apart.
The images were analyzed by custom-made image analysis scripts either with the imaging analysis software Acapella (version 2.8 PerkinElmer) or Columbus (version 2.4.0 PerkinElmer). The scripts included modules for the identification and counting of the cell nuclei to extrapolate the number of cells per well, for definition of a cytoplasm surrounding the nucleus, for identification and counting of the lysosome vesicles within the cytoplasm. Additional cellular parameters included the nuclei size, intensity, the cell size (cell area), the lysosome size (lysosome area), intensity and the number of lysosomes normalized by the cell area to compensate for difference in size of the cells.

[1] = tested on: RPTEC/TERT1 and NRK-52E cells; assay: In vitro key event assays (LAMP-1/2, cathepsin D, cell viability) compared across both cell models; type: cell-based, human and rat; details: for Effect on cell viability / cytotoxicity (KE3): CellTiter-Glo
Description: Cells were plated into 96-well tissue culture plates (10,000 cells per well) and were allowed to grow for 48 h (NRK-52E) respectively 10 d (RPTEC/TERT1) prior to 24 h treatment with model stressors. Stock solution for each compound (2000 µM) was prepared in growth medium and serial dilutions (1:1) were made before each experiment. At the end of the 24 h treatment, cell viability was measured using the CellTiter-Glo® assay (Promega). CellTiter-Glo® reagents and buffer were mixed under light-protected conditions and 100 µL CellTiter-Glo® solution was added directly to each well followed by 2 min incubation on an orbital shaker and 10 min incubation at room temperature in the dark to stabilize the luminescence signal. The suspension was mixed via pipetting and 50 µL were transferred into white 96-well plates (PerkinElmer Inc.). The luminescence signal was measured on a multiplate reader (Mithras LB 940; Berthold). Each assay was performed in three independent experiments carried out in triplicates.
For immunocytochemistry experiments, cells were seeded into 8-well chamber slides (Ibidi) at a density of 140 cells per µL in 300 µL growth medium and were allowed to grow for 48 h (NRK-52E) or 10 d (RPTEC/TERT1) respectively. For treatment, stock solutions (1,000 µM) of compounds dissolved in growth medium were freshly prepared and serial dilutions were made before exposure of cells for 24 h. After treatment, cells were washed twice with 150 µL PBS and fixed with 150 µL 4% paraformaldehyde in 1 x PBS for 10 min at room temperature. After fixation, cells were washed 10 min with 150 µL PBS on an orbital shaker followed by permeabilization with 150 µL 0.2% Triton X-100 in 1 x PBS for 5 min at room temperature on an orbital shaker. The permeabilized cells were washed twice with 1 x PBS (150 µL) for 10 min at room temperature on an orbital shaker and then incubated with 150 µL 5% BSA dissolved in 1 x PBS for 1 h at room temperature to block unspecific binding sites. After blocking, 100 µL primary antibody diluted 1:100 in 1% BSA in 1 x PBS were directly pipetted onto the cells and incubated overnight at 4°C. The following antibodies were employed for NRK-52E cells: Anti-LAMP-1 monoclonal IgG1 kappa mouse antibody (Santa Cruz; sc-20011), anti-Cathepsin D mouse monoclonal IgG2 kappa antibody (Santa Cruz; sc-377124); for RPTEC/TERT1 cells: Anti-LAMP-2 monoclonal mouse antibody (Santa Cruz; sc-18822), anti-Cathepsin D mouse monoclonal IgG2b kappa (Novus Biologicals; NBP1-04278); for both cell lines anti-megalin mouse monoclonal IgG1 antibody (Santa Cruz, sc-515772).
After incubation with primary antibody, cells were washed three times for 15 min with 0.2% Tween in 1 x PBS (150 µL) on an orbital shaker. Cells were incubated for 1 h at room temperature with 100 µL CFL 488-conjugated mouse IgG kappa binding protein (1:50) (m-IgGκ BP-CFL 488; Santa Cruz, sc-516176). After incubation the cells were washed three times for 15 min with 0.2% Tween in 1 x PBS on an orbital shaker and once with 150 µL sterile water. Phalloidin-tetramethylrhodamine B isothiocyanate (TRITC) was used to stain the cytoskeleton and was diluted in 100% methanol to a stock concentration of 0.1 mg/ml and further diluted in 1 x PBS to a working concentration of 0.095 µM. After cells were washed once with 1 x PBS for 10 min at room temperature 150 µL phalloidin-TRITC working solution was added and the cells were incubated on an orbital shaker at room temperature for 60–90 min. After incubation, phalloidin-TRITC solution was aspirated, and the cells were washed once with 1 x PBS. Chamber slides were allowed to dry for 15 min at room temperature. To preserve fluorescence 50–100 µL DAPI mounting medium (Vectashield®; Vectorlab, Biozol) was added to the cells and chamber slides were stored at 4°C in the dark until image acquisition. […]

[2] = RPTEC/TERT1 and NRK-52E, 24 h treatment
[3] = RPTEC/TERT1, 24 h, 7.8 to 2000 µM (smaller range for CdCl2 and 4-aminophenol), triplicate experiments, Figure S1

| Molecule | Effect on lysosomal endpoints in high content screening (RPTEC/TERT1 cells; [3]) | further results |
| --- | --- | --- |
| Nc1ccc(O)cc1 [4-aminophenol] |  | Effect on lysosomal endpoints in high content screening (RPTEC/TERT1 cells): minor changes |
| [Cl][Cd][Cl] [CdCl2, cadmium chloride] | most prominent effects on lysosomal endpoints | Cytotoxicity compared between RPTEC/TERT1 and NRK-52E cells ([1]; 24 h treatment, cell viability): more toxic in NRK-52E cells; Effect on LAMP-1/2 expression (KE1) ([1]; RPTEC/TERT1 and NRK-52E, 24 h, immunofluorescence image analysis): only minor effects on LAMP1/2 expression; Effect on cell viability / cytotoxicity (KE3) [1, 2]: significant cytotoxicity |
| N[C@@H](CSC(Cl)=C(Cl)Cl)C(=O)O [TCVC, S-(1,2,2-trichlorovinyl)-L-cysteine] | minor changes |  |
| Nc1ccn(C[C@@H](CO)OCP(=O)(O)O)c(=O)n1 [cidofovir] | minor changes |  |
| CNC(C)C1CCC(N)C(OC2C(N)CC(N)C(OC3OCC(C)(O)C(NC)C3O)C2O)O1 (centres unmarked) [gentamicin] | most prominent effects on lysosomal endpoints |  |
| CC(C)OC(=O)OCOP(=O)(CO[C@H](C)Cn1cnc2c(N)ncnc21)OCOC(=O)OC(C)C [tenofovir disoproxil fumarate] | minor changes |  |
| C[C@H](Cn1cnc2c(N)ncnc21)OCP(=O)(O)O [tenofovir] | minor changes |  |
| CN[C@H](CC(C)C)C(=O)N[C@H]1C(=O)N[C@@H](CC(N)=O)C(=O)N[C@H]2C(=O)N[C@H]3C(=O)N[C@H](C(=O)N[C@H](C(=O)O)c4cc(O)cc(O)c4-c4cc3ccc4O)[C@H](O)c3ccc(c(Cl)c3)Oc3cc2cc(c3O[C@@H]2O[C@H](CO)[C@@H](O)[C@H](O)[C@H]2O[C@H]2C[C@](C)(N)[C@H](O)[C@H](C)O2)Oc2ccc(cc2Cl)[C@H]1O [vancomycin] |  | Effect on lysosomal endpoints in high content screening (RPTEC/TERT1 cells): most prominent effects on lysosomal endpoints |
| Polymyxin B nonapeptide | most prominent effects on lysosomal endpoints | Rank order of effects of the 3 polymyxin derivatives across all KEs ([1]; RPTEC/TERT1 and NRK-52E, 24 h): least toxic; Effect on cell viability / cytotoxicity (KE3) [1, 2]: low |
